Experimental data taken from patent publication US9187497B2, “Substituted pyrido[3,2-e]pyrrolo[1,2-a]pyrazines as inhibitors of poly(ADP-ribose)polymerase (PARP)” (Takeda Phamaceutical Company Limited, priority 2009, dated 2015).

What was measured:
[1] = system: Jurkat cell line; experiment: PARP cellular chemopotentiation assay (MTS cell viability with and without TMZ); type: cell-based; conditions: ratio of EC50 for inhibition of cell viability without and with 100 μM TMZ; Jurkat cells, 96 hours of treatment
Procedure, shortened: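 Jurkat cells, 10,000/well, pre-cultured 24 h, then treated 96 h with serial compound dilutions (0.5% DMSO) with or without 100 μM TMZ. Viability by MTS conversion (OD490), normalized to DMSO controls; EC50 from curve fits, PF50 = EC50 without TMZ / EC50 with TMZ.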

[2] = target: T1, PARP (Homo sapiens, UniProt P09874); experiment: PARP ELISA colorimetric assay of inhibition of PARP catalytic activity (IC50); type: biochemical; conditions: pIC50=-log(IC50), IC50 in molar concentration; ELISA-based PARP kit, 10 minutes of catalysis
T1 construct: purchased Trevigen 4684-096-01 (enzyme); kit 4684-096-K HT
T1 sequence (P09874 whole entry): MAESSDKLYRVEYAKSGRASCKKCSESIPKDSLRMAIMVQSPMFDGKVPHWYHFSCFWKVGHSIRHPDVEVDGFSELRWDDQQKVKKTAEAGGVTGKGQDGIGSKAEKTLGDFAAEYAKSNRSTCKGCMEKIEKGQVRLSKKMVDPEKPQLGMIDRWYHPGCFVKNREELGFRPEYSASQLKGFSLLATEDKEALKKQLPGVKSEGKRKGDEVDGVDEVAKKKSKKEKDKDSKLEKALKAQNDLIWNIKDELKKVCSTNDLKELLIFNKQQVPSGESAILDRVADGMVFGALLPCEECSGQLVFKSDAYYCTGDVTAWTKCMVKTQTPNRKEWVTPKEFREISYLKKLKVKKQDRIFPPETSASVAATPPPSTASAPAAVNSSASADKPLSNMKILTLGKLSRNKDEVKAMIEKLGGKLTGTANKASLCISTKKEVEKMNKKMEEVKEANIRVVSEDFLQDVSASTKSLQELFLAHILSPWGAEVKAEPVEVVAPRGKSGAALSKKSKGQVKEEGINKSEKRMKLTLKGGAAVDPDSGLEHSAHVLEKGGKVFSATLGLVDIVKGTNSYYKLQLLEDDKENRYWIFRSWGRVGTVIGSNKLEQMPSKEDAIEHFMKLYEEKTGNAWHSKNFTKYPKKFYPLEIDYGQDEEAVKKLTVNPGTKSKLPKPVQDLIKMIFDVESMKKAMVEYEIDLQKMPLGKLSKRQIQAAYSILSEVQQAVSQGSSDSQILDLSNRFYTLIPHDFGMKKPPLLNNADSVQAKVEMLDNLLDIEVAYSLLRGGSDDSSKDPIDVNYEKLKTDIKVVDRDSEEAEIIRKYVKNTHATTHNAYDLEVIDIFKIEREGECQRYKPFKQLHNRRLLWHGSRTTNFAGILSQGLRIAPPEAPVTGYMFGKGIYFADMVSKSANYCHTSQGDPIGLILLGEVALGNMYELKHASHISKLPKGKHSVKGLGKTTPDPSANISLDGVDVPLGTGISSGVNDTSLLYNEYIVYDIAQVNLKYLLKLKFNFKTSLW
Procedure, shortened: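 Human PARP was added as a 0.1 nM solution to histone-coated wells with compound for a 10-min ambient preincubation. The reaction was started with 100 μM NAD+ solution plus activated DNA and run 10 min. PAR formation was detected by anti-PAR ELISA, colorimetric. IC50 came from a 12-point, 3-fold gradient fitted by nonlinear least squares to a Hill equation.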

[3] = target: T2, catalytic domain of Human PARP (Homo sapiens, UniProt P09874); experiment: Biacore surface plasmon resonance affinity assay (dissociation constant KD); type: binding; conditions: pKD=-log(KD), KD in molar concentration; Biacore T100, 25° C.
T2 construct: The catalytic domain of Human PARP was cloned and prepared; made in house
T2 sequence (P09874 788-1014 limits assumed): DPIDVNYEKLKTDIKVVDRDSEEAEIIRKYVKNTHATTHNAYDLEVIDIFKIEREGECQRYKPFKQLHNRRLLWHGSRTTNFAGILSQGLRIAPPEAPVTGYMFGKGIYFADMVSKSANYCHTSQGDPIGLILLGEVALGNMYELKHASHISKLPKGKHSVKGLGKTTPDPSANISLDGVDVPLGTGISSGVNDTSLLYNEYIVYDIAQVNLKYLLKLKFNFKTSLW
Protocol: Dissociation Constant (KD) from Surface Plasmon Resonance
The catalytic domain of Human PARP was cloned and prepared as described in Kinoshita, T.; Nakanishi, I.; Warizaya, M.; Iwashita, A.; Kido, Y.; Hattori, K. and Fujii, T. 2006 FEBS Letters 556, 43-46. Purified enzyme was stored at −80° C. in 25 mM Tris(hydroxymethyl)aminomethane (Tris) pH 7.4, 150 mM NaCl, 2 mM dithiothreitol (DTT) at a concentration of 6 mg/ml.
Biacore affinity assays for test compounds were conducted on a Biacore T100 (GE Healthcare) as follows. A Series S Sensor Chip CM5 (part number BR-1006-68, GE Healthcare) was activated for amide coupling with an Amine Coupling Kit (part number BR-1000-50, GE Healthcare) as described by the manufacturer. The mobile phase buffer consisted of Biacore buffer HBS-P (part number BR-1003-68, GE Healthcare) supplemented with 1% v/v dimethylsulfoxide (DMSO), 0.5 mM Tris(2-carboxyethyl)phosphine hydrochloride (TCEP), and 5 mM MgCl2. Enzyme samples (2 μl/6 mg/ml) stored at −80° C. were diluted to 0.080 mg/ml with 10 mM 4-morpholineethanesulfonic acid (MES) pH 6.5 and then mounted on the activated Biacore CM5 chip at a flow rate of 10 μl/min for 240 seconds. When successfully mounted, a signal of approximately 8,000 reflective units was observed. Test compounds were diluted 9 times 2-fold serially in mobile phase buffer (listed above) at 1% v/v DMSO final to generate a concentration gradient bracketing their anticipated KDs. Biacore mounted PARP was given a 1 minute exposure (association phase) to various concentrations of test compounds to observe a steady state equilibrium or an on rate. The exposure was followed with a dissociation phase of 5 minutes. The association and dissociation phases were at a flow rate of 50 μl/min and a temperature of 25° C.
Parameters Rmax (response at saturation) and KD (binding constant) were calculated through a nonlinear least squares fitting of the equation to the data by use of the Biacore T100 analysis software.
Parameter optimization was through a nonlinear least squares analysis of the association phase Response=Rmax*(1−exp(−(kon[cmpd]+koff)*t)) and dissociation phase Response=[…] by use of the Biacore T100 analysis software. The binding constant KD was calculated from the definition KD=koff/kon

| IC50 [2] | melting point | Structure (SMILES) | PF50 [1] | Kd [3] |
| --- | --- | --- | --- | --- |
| ≤ 12.6 nM | 212.2 °C | N#Cc1ccc(N2CCN(Cc3cnc4c(c3)NC(=O)[C@@H]3CCCCN43)CC2)cc1 [Compound 71, (S)-4-(4-((6-oxo-6,6a,7,8,9,10-hexahydro-5H-dipyrido[1,2-a:3′,2′-e]pyrazin-3-yl)methyl)piperazin-1-yl)benzonitrile] | >500 | – |
| 15.8 to 39.8 nM | 252 to 256 °C | N#Cc1ccc(N2CCN(Cc3cnc4c(c3)NC(=O)[C@@H]3CCCN43)CC2)nc1 [Compound 5, (S)-6-(4-((6-oxo-5,6,6a,7,8,9-hexahydropyrido[3,2-e]pyrrolo[1,2-a]pyrazin-3-yl)methyl)piperazin-1-yl)nicotinonitrile] | >5000 | < 31.6 nM |
| ≥ 50.1 nM | 91.9 °C | CCN(C)C(=O)c1ccc(N2CCN(Cc3cnc4c(c3)NC(=O)[C@@H]3CCCN43)CC2)cc1 [Compound 140, (S)—N-ethyl-N-methyl-4-(4-((6-oxo-5,6,6a,7,8,9-hexahydropyrido[3,2-e]pyrrolo[1,2-a]pyrazin-3-yl)methyl)piperazin-1-yl)benzamide] | ≧0 | – |
| 15.8 to 39.8 nM | 252 °C | N#Cc1ccc(N2CCN(Cc3cnc4c(c3)NC(=O)[C@@H]3CCCN43)CC2)cc1 [Compound 4, (S)-4-(4-((6-oxo-5,6,6a,7,8,9-hexahydropyrido[3,2-e]pyrrolo[1,2-a]pyrazin-3-yl)methyl)piperazin-1-yl)benzonitrile] | >2000 | – |
| ≥ 50.1 nM | 242 °C | CCOC(=O)c1ccc(N2CCN(Cc3cnc4c(c3)NC(=O)[C@@H]3CCCN43)CC2)cc1 [Compound 101, (S)-ethyl 4-(4-((6-oxo-5,6,6a,7,8,9-hexahydropyrido[3,2-e]pyrrolo[1,2-a]pyrazin-3-yl)methyl)piperazin-1-yl)benzoate] | >10 | – |
| 15.8 to 39.8 nM | 265 to 268 °C | O=C(NC1CC1)c1ccc(N2CCN(Cc3cnc4c(c3)NC(=O)[C@@H]3CCCN43)CC2)cc1 [Compound 13, (S)—N-cyclopropyl-4-(4-((6-oxo-5,6,6a,7,8,9-hexahydropyrido[3,2-e]pyrrolo[1,2-a]pyrazin-3-yl)methyl)piperazin-1-yl)benzamide] | >5000 | – |
| ≥ 50.1 nM | 99.2 °C | CN(C)C(=O)c1ccc(N2CCN(Cc3cnc4c(c3)NC(=O)[C@@H]3CCCN43)CC2)cc1 [Compound 139, (S)—N,N-dimethyl-4-(4-((6-oxo-5,6,6a,7,8,9-hexahydropyrido[3,2-e]pyrrolo[1,2-a]pyrazin-3-yl)methyl)piperazin-1-yl)benzamide] | ≧0 | – |
| ≤ 12.6 nM | 232.6 °C | CCNC(=O)c1ccc(N2CCN(Cc3cnc4c(c3)NC(=O)[C@@H]3CCCCN43)CC2)cc1 [Compound 73, (S)—N-ethyl-4-(4-((6-oxo-6,6a,7,8,9,10-hexahydro-5H-dipyrido[1,2-a:3′,2′-e]pyrazin-3-yl)methyl)piperazin-1-yl)benzamide] | >2000 | – |
| ≤ 12.6 nM | 226.7 to 233.5 °C | Cc1cc(C(=O)NC2CC2)ccc1N1CCN(Cc2cnc3c(c2)NC(=O)[C@@H]2CCCN32)CC1 [Compound 142, (S)—N-cyclopropyl-3-methyl-4-(4-((6-oxo-5,6,6a,7,8,9-hexahydropyrido[3,2-e]pyrrolo[1,2-a]pyrazin-3-yl)methyl)piperazin-1-yl)benzamide] | >2000 | – |
| ≥ 50.1 nM | 121.3 °C | O=C1Nc2cc(CN3CCN(c4ccc(C(=O)N5CCCC5)cc4)CC3)cnc2N2CCC[C@@H]12 [Compound 138, (S)-3-((4-(4-(pyrrolidine-1-carbonyl)phenyl)piperazin-1-yl)methyl)-6a,7,8,9-tetrahydropyrido[3,2-e]pyrrolo[1,2-a]pyrazin-6(5H)-one] | ≧0 | – |

| Structure (SMILES) | IC50 [2] | melting point | PF50 [1] | Kd [3] |
| --- | --- | --- | --- | --- |
| O=C1Nc2cc(CN3CC=C(c4ccc(Cl)cc4)CC3)cnc2N2CCC[C@@H]12 [Compound 2, (S)-3-((4-(4-chlorophenyl)-5,6-dihydropyridin-1(2H)-yl)methyl)-6a,7,8,9-tetrahydropyrido[3,2-e]pyrrolo[1,2-a]pyrazin-6(5H)-one] | – | 234 to 235 °C | >2000 | < 31.6 nM |
